Laboratory results: patent US20090191144A1, “USE OF LIPID COMPONENTS AGAINST POLLEN ALLERGIES” (BEIERSDORF AG, priority 2008, published 2009)

Test: Viscosity of preferred lipids
Type: physicochemical

Row | Compound | Viskosity (in mPas) (s^−1 = 500)
1 | CCCCCCCCCCCCCCCCCC(=O)OCCCC [Crodamol BS, Butyl Stearate] | 100 mPas
2 | CC(C)CCCCCCCCCCCCCCCOC(=O)CC(O)C(=O)OCCCCCCCCCCCCCCCC(C)C (centres unmarked) [DUB MDIS, Diisostearyl Malate] | 113 mPas
3 | CCCCCCCCCCC(CO)CCCCCCCC (centres unmarked) [Eutanol G, Octyldodecanol] | 47.7 mPas
4 | CCCCOCCOP(=O)(OCCOCCCC)OCCOCCCC [Hostaphat B 310, Tributoxyethylphosphate] | 122 mPas
5 | CC(C)CCCC(C)CCCC(C)CCCCC(C)CCCC(C)CCCC(C)C (centres unmarked) [Motif, Squalan] | 220 mPas
6 | CCCCC(CC)C(=O)OCC(COC(=O)C(CC)CCCC)(COC(=O)C(CC)CCCC)COC(=O)C(CC)CCCC (centres unmarked) [Trivent PE 48, Pentaerythrityl Tetraethylhexanoate] | 116 mPas
7 | Hydroxystearate Glycerol Triacetyle | 65 mPas
8 | PEG-2 Diethylhexanoate [Dermol 488] | 110 mPas
9 | Pentaerythrityl Tetraisostearate [Crodamol PTIS 3797] | 390 mPas
10 | Pentaerythrityl Tetraisostearate [DUB PTIS] | 57 mPas
11 | Tridecyl Trimellitate [DUB TMTD] | 116 mPas
12 | Triisodecyl Trimelliate [DUB TMI] | 111 mPas
13 | Triisononanoin [Isodragol] | 67 mPas
14 | Triisostearin [Prisorine 2041 GTIS] | 99 mPas
